Laboratory results: PubChem BioAssay AID328 (DTP/NCI, 2004)
Several values for one entry are separate records, joined by “and”; a condition that tells them apart may be missing. Equal entries are not always repeated. Toxic doses and inconclusive results are not listed. Starred links: 1 amine or outer side, 2 acyl side, 3 side chain; linkers in the order of their positions; H or OH if unused. Positions of bridges follow the written chain, without caps; N, C: chain ends. Non-standard residues stand in square brackets, D forms with d. Residues, ends and D or L forms follow the SMILES beside them. Chains are numbered I, II in the order given. Actinocin(1to9) = Cc1c2oc3c(C)ccc(C(=O)[*:2])c3nc-2c(C(=O)[*:1])c(N)c1=O; NMeV = CN[CH](C(=O)O)C(C)C; Sar = CNCC(=O)O

Tested on: BDF1 mice, P388 leukemia ip, median survival T/C
Test: NCI In Vivo Anticancer Drug Screen. Data for tumor model P388 Leukemia (intraperitoneal) in B6D2F1 (BDF1) mice
Settings: endpoint: median survival time, higher = longer survival
How it was run: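 Reported as T/C, where T is the survival measurement in dosed animals and C the same measurement in vehicle controls.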

[1] = dose: 50.0 mg/kg/injection, schedule: Q01DX009 (ip), vehicle: saline with Tween-80
[2] = dose: 100.0 mg/kg/injection, schedule: Q01DX009 (ip), vehicle: saline with Tween-80
[3] = dose: 25.0 mg/kg/injection, schedule: Q01DX009 (ip), vehicle: saline with Tween-80

With `CCC(C)C1NC(=O)C(NC(=O)c2c3nc4c(C(=O)NC5C(=O)NC(C(C)C)C(=O)N6CCCC6C(=O)N(C)CC(=O)N(C)C(C(C)C)C(=O)OC5C)ccc(C)c4oc-3c(C)c(=O)c2N)C(C)OC(=O)C(C(C)C)N(C)C(=O)CN(C)C(=O)C2CCCN2C1=O` (centres undefined) (I: TIP[Sar][NMeV] / II: TVP[Sar][NMeV]; ester I:1-I:C, II:1-II:C; linker I:N-II:N via Actinocin(1to9); configuration not given here) the T/C (dose: 0.05 mg/kg/injection, schedule: Q01DX010 (ip), vehicle: saline) was 300 % of control, the T/C (dose: 0.1 mg/kg/injection, schedule: Q01DX010 (ip), vehicle: saline) was 100 % of control and the T/C (dose: 0.2 mg/kg/injection, schedule: Q01DX001 (ip), vehicle: water) was 175 % of control. The T/C (dose: 0.4 mg/kg/injection, schedule: Q01DX001 (ip), vehicle: water) was 155 % of control, the T/C (dose: 0.8 mg/kg/injection, schedule: Q01DX001 (ip), vehicle: water) was 175 % of control and the T/C (dose: 3.1 micrograms/kg/injection, schedule: Q01DX001 (ip), vehicle: saline) was 118 % of control. For the same compound, the T/C (dose: 3.1 micrograms/kg/injection, schedule: Q01DX010 (ip), vehicle: saline) was 180 % of control, the T/C (dose: 3.1 micrograms/kg/injection, schedule: Q04DX003 (ip), vehicle: saline) was 118 % of control and the T/C (dose: 6.0 micrograms/kg/injection, schedule: Q01DX010 (ip), vehicle: saline) was 180 % of control. For the same compound, the T/C (dose: 6.2 micrograms/kg/injection, schedule: Q01DX010 (ip), vehicle: saline) was 190 % of control, the T/C (dose: 6.3 micrograms/kg/injection, schedule: Q01DX001 (ip), vehicle: saline) was 109 % of control and the T/C (dose: 12.5 micrograms/kg/injection, schedule: Q01DX009 (ip), vehicle: water) was 213 % of control. For the same compound, the T/C (dose: 12.5 micrograms/kg/injection, schedule: Q01DX010 (ip), vehicle: saline) was 228 % of control and 220 % of control, the T/C (dose: 25.0 micrograms/kg/injection, schedule: Q01DX009 (ip), vehicle: water) was 215 % of control and the T/C (dose: 25.0 micrograms/kg/injection, schedule: Q01DX010 (ip), vehicle: saline) was 285 % of control and 220 % of control. The T/C (dose: 25.0 micrograms/kg/injection, schedule: Q04DX003 (ip), vehicle: saline) was 154 % of control, the T/C (dose: 50.0 micrograms/kg/injection, schedule: Q01DX001 (ip), vehicle: saline) was 150 % of control and the T/C (dose: 50.0 micrograms/kg/injection, schedule: Q01DX009 (ip), vehicle: water) was 215 % of control. The T/C (dose: 50.0 micrograms/kg/injection, schedule: Q01DX010 (ip), vehicle: saline) was 285 % of control and 300 % of control, the T/C (dose: 50.0 micrograms/kg/injection, schedule: Q04DX003 (ip), vehicle: saline) was 190 % of control and the T/C (dose: 75.0 micrograms/kg/injection, schedule: Q04DX003 (ip), vehicle: water) was 172 % of control. For the same compound, the T/C (dose: 100.0 micrograms/kg/injection, schedule: Q01DX001 (ip), vehicle: saline) was 159 % of control, the T/C (dose: 100.0 micrograms/kg/injection, schedule: Q01DX009 (ip), vehicle: water) was 243 % of control and the T/C (dose: 100.0 micrograms/kg/injection, schedule: Q01DX010 (ip), vehicle: saline) was 110 % of control. The T/C (dose: 100.0 micrograms/kg/injection, schedule: Q04DX003 (ip), vehicle: saline) was 186 % of control, the T/C (dose: 150.0 micrograms/kg/injection, schedule: Q04DX003 (ip), vehicle: water) was 181 % of control and the T/C (dose: 200.0 micrograms/kg/injection, schedule: Q01DX001 (ip), vehicle: saline) was 186 % of control. The T/C (dose: 200.0 micrograms/kg/injection, schedule: Q01DX010 (ip), vehicle: saline) was 90 % of control, the T/C (dose: 200.0 micrograms/kg/injection, schedule: Q04DX003 (ip), vehicle: saline) was 231 % of control and the T/C (dose: 300.0 micrograms/kg/injection, schedule: Q04DX003 (ip), vehicle: water) was 241 % of control. For the same compound, the T/C (dose: 400.0 micrograms/kg/injection, schedule: Q01DX001 (ip), vehicle: saline) was 218 % of control, the T/C (dose: 400.0 micrograms/kg/injection, schedule: Q04DX003 (ip), vehicle: saline) was 263 % of control and the T/C (dose: 600.0 micrograms/kg/injection, schedule: Q04DX003 (ip), vehicle: water) was 267 % of control.

With `O=c1nc(Oc2ccccc2)nc2cnccn12` the T/C [1] was 88 % of control and the T/C [2] was 88 % of control.

With `CCCCCOC(=O)c1ccc(OP(=O)(N(C)C)N(C)C)cc1` the T/C [1] was 116 % of control and the T/C [2] was 100 % of control.

With `Cc1[nH]ccc2c(C)c3nc4ccccc4c3cc12` the T/C (dose: 0.39 mg/kg/injection, schedule: Q01DX009 (ip), vehicle: saline with Tween-80) was 116 % of control, the T/C (dose: 0.59 mg/kg/injection, schedule: Q01DX009 (ip), vehicle: saline with Tween-80) was 100 % of control and the T/C (dose: 0.9 mg/kg/injection, schedule: Q01DX009 (ip), vehicle: saline with Tween-80) was 150 % of control. For the same compound, the T/C (dose: 1.35 mg/kg/injection, schedule: Q01DX009 (ip), vehicle: saline with Tween-80) was 160 % of control, the T/C (dose: 4.12 mg/kg/injection, schedule: Q01DX009 (ip), vehicle: saline with Tween-80) was 168 % of control and the T/C (dose: 8.25 mg/kg/injection, schedule: Q01DX009 (ip), vehicle: saline with Tween-80) was 177 % of control. For the same compound, the T/C (dose: 16.5 mg/kg/injection, schedule: Q01DX009 (ip), vehicle: saline with Tween-80) was 163 % of control, the T/C [3] was 165 % of control and 168 % of control and the T/C (dose: 37.5 mg/kg/injection, schedule: Q01DX009 (ip), vehicle: saline with Tween-80) was 225 % of control and 154 % of control.

With `COC(=O)c1nc(-c2ccc3c(n2)C(=O)C(N)=C(OC)C3=O)c(N)c(-c2ccc(OC)c(OC)c2O)c1C` the T/C (dose: 4.0 mg/kg/injection, schedule: Q01DX009 (ip), vehicle: saline with Tween-80) was 250 % of control, the T/C (dose: 6.0 mg/kg/injection, schedule: Q01DX009 (ip), vehicle: saline with Tween-80) was 183 % of control and the T/C (dose: 9.0 mg/kg/injection, schedule: Q01DX009 (ip), vehicle: saline with Tween-80) was 162 % of control.

For `CC(C)(C)C#C[P+](C#CC(C)(C)C)(Cc1ccccc1)c1ccccc1`, the T/C (dose: 12.5 mg/kg/injection, schedule: Q01DX009 (ip), vehicle: saline) was 96 % of control, the T/C (dose: 12.5 mg/kg/injection, schedule: Q04DX003 (ip), vehicle: saline) was 123 % of control and the T/C (dose: 25.0 mg/kg/injection, schedule: Q04DX003 (ip), vehicle: saline) was 123 % of control. The T/C (dose: 50.0 mg/kg/injection, schedule: Q04DX003 (ip), vehicle: saline) was 107 % of control.

With `O=C1C2C3CC4C2C(=O)C2C1C3C42` (centres undefined) the T/C (dose: 100.0 mg/kg/injection, schedule: Q04DX003 (ip), vehicle: saline) was 90 % of control, the T/C (dose: 200.0 mg/kg/injection, schedule: Q04DX003 (ip), vehicle: saline) was 102 % of control and the T/C (dose: 400.0 mg/kg/injection, schedule: Q04DX003 (ip), vehicle: saline) was 90 % of control.

For `CCC(CC)N(C)C(C)(C)CO`, the T/C [3] was 100 % of control, the T/C [1] was 91 % of control and the T/C (dose: 50.0 mg/kg/injection, schedule: Q04DX003 (ip), vehicle: saline sonified) was 104 % of control. For the same compound, the T/C [2] was 108 % of control, the T/C (dose: 100.0 mg/kg/injection, schedule: Q04DX003 (ip), vehicle: saline sonified) was 104 % of control and the T/C (dose: 200.0 mg/kg/injection, schedule: Q04DX003 (ip), vehicle: saline sonified) was 113 % of control.

For `S=P(N1CCCCCC1)(N1CC1)N1CC1`, the T/C (dose: 16.5 mg/kg/injection, schedule: Q01DX009 (ip), vehicle: saline) was 154 % of control, the T/C (dose: 25.0 mg/kg/injection, schedule: Q01DX009 (ip), vehicle: saline) was 195 % of control and the T/C (dose: 37.5 mg/kg/injection, schedule: Q01DX009 (ip), vehicle: saline) was 122 % of control.

In the case of `CC(C)(C)N1CC1CN` (centres undefined), the T/C (dose: 50.0 mg/kg/injection, schedule: Q01DX009 (ip), vehicle: saline) is reported as 90 % of control, the T/C (dose: 100.0 mg/kg/injection, schedule: Q01DX009 (ip), vehicle: saline) is reported as 90 % of control and the T/C (dose: 200.0 mg/kg/injection, schedule: Q01DX009 (ip), vehicle: saline) is reported as 89 % of control. For the same compound, the T/C (dose: 400.0 mg/kg/injection, schedule: Q01DX009 (ip), vehicle: saline) was 121 % of control.

In the case of `COc1cccc(C(=O)O)c1OS(=O)(=O)c1ccc(C)cc1`, the T/C (dose: 25.0 mg/kg/injection, schedule: Q01DX009 (ip), vehicle: other) is reported as 108 % of control, the T/C (dose: 50.0 mg/kg/injection, schedule: Q01DX009 (ip), vehicle: other) is reported as 100 % of control and the T/C (dose: 100.0 mg/kg/injection, schedule: Q01DX009 (ip), vehicle: other) is reported as 100 % of control. For the same compound, the T/C (dose: 200.0 mg/kg/injection, schedule: Q01DX009 (ip), vehicle: other) was 101 % of control and the T/C (dose: 400.0 mg/kg/injection, schedule: Q01DX009 (ip), vehicle: other) was 103 % of control.

In the case of `COc1cc(C=Nc2cccc(Br)c2)ccc1N(CCCl)CCCl`, the T/C (dose: 5.5 mg/kg/injection, schedule: Q04DX003 (ip), vehicle: saline with Tween-80) is reported as 159 % of control, the T/C (dose: 8.3 mg/kg/injection, schedule: Q04DX003 (ip), vehicle: saline with Tween-80) is reported as 177 % of control and the T/C (dose: 12.5 mg/kg/injection, schedule: Q04DX003 (ip), vehicle: saline with Tween-80) is reported as 190 % of control. The T/C (dose: 25.0 mg/kg/injection, schedule: Q04DX003 (ip), vehicle: other) was 250 % of control and the T/C (dose: 100.0 mg/kg/injection, schedule: Q01DX009 (ip), vehicle: saline sonified) was 90 % of control.
